Source: patent publication US8936809B2, “Method for treating prostate diseases based on local delivery of active substances” (Lidds AB, priority 2005, dated 2015)
Values joined by “and” are separate entries in the source; they are usually repeats but may differ in a detail not shown here. Equal entries are not always repeated. Where two headings read alike, the source gives them in different places.

Tests used:
[1] = Plasma pharmacokinetics after local prostate implant in male beagle dogs (Example 3); type: in vivo, dog; conditions: for F (bioavailability): beagle dog; for F (bioavailability) / bioavailability: approximated with average i.v. clearance of Example 1; for half-life: read-out: t½ (converted); for bioavailability: iv, read-out: F (bioavailability)
Procedure: The dog has been selected as the test model because of its proven suitability in this type of study. The study was performed in 12 male beagle dogs from Harlan Winkelmann GmbH, Germany.
The sterile controlled release implant was composed of ceramic compounds and 2-hydroxyflutamide. Storage and handling instructions were given. The composition of the formulation of the low and high dose was 250 mg of 2-hydroxyflutamide +2.25 g calcium sulphate di-hydrat +5.0 g calcium sulphate hemi-hydrate and it was mixed with solution: 3.5 ml of water solution (with 1% acetic acid and 1% methyl cellulose).
The final formulation work was done during sterile conditions by trained personal at the experimental day. The amount injected into each lobe of the androgen sensitive bulbourethral gland was about 2.0-3.0 ml for the low dose (250 mg) and 4.0-6.0 ml of the high dose (500 mg).
The animals were fasted for at least 12 hours prior to the insertion procedure on Day 1. The implant drug delivery system was inserted locally into the prostate tissue, via rectum, through sterile needles during rectal ultrasound guidance. Each animal was under anesthesia during the insertion procedure.
Blood samples for pharmacokinetic was collected as follows: On Day 1: Pre-insertion and 6 hours after insertion. Blood samples were sampled in the morning on Days 2, 3, 4, 5, 6 and 7. During the rest of the study blood samples were collected once a week.
Blood samples of approximately 3 ml were drawn from the jugular vein. The blood was sampled into vacutainers containing EDTA as anticoagulant. The blood was placed in ice water until centrifugation (10 min, 1270 G, +4° C.). The plasma was transferred to Nunc cryotubes (Nunc, Denmark) and frozen at −18° C. or below and sent with dry ice to Swedish Veterinary Institute, Uppsala for analysis.
The plasma pharmacokinetic variables were calculated using standard pharmacokinetic methods and are given for both implant doses of 250 mg and 500 mg in Tables 6 and 7. The bioavailability (F) was approximated by using the average value for clearance of 2-hydroyflutamide when it was given by an intravenous dose in the dog study presented in Example 1.

in vivo = conditions: male, Labrador, dog, iv, 25 mg
Procedure: First, four male dogs (H1-H4) (Labrador, approx. 1 year of age and weight 30 kg) were given 2-hydroxy-flutamide (25 mg) by single bolus doses intravenously during 30 seconds. The intravenous solution base was sterile saline […], sterile polyethylene glycol 400 46% and ethanol (95%) 6%. Blood samples of 1.0 ml were taken from the Cephalic vein at 5, 10, 15, 30, 60, 90, 120, 240, 360, and 600 minutes. The blood samples were immediately centrifuged at 3000 rpm and the plasma samples were frozen at −80° C. until analysis.
Quantification of 2-hydroxy-flutamide in plasma and tissue samples was done by HPLC-MS. HPLC was performed with a Surveyor HPLC system equipped with a CTC Pal autosampler. The analytical column was a Zorbax Eclipse XDB-18 (2.1 mm×50 mm, particle size 5 μm) connected to a guard column. The eluent consisted of solvent A (aqueous formic acid 0.1%) and B (acetonitrile), a linear gradient from 25 to 90% of solvent B in 5 minutes was applied. The proportion of solvent B was then lowered to 25% in one minute and was allowed to equilibrate at this level for two minutes prior to the next injection. The volumetric flow-rate was 200 μL/min and the injection volume was 20 μL. The HPLC column outlet was coupled to a TSQ Quantum Ultra tandem triple quadrupole mass spectrometer (ThermoFinnigan, San José, Calif., USA). The transition of m/z 291 [M-H]^−→205 was used for 2-hydroxy-flutamide and m/z 316 [M-H]^−→273 was used for nilutamide (internal standard). The limit of quantification was 0.50 ng/ml in dog plasma. Calibration samples were prepared by spiking blank plasma samples with 100 μL of solutions of 2-hydroxy-flutamide at different concentrations. […] The accuracies of the analytical runs were calculated as 100*(mean determined concentration in QC sample/spiked concentration) % and the intra-run precisions were calculated as the relative standard deviation (RSD %) of the determined concentrations at each QC level. […]

[2] = beagle dog plasma, local prostate implant 250 mg, individual animals
[3] = beagle dog plasma, local prostate implant 500 mg, individual animals
[4] = male, beagle, dog, plasma, 250 mg, beagle dogs, local prostate implant 250 mg, Mean of four animals
[5] = male, beagle, dog, plasma, 500 mg, beagle dogs, local prostate implant 500 mg, Mean of four animals

- Tmax [1, 2]: 48 h
- t½ [1, 2]: 34 h and 39 h and 26 h
- Cmax [1, 3]: 202 ng/mL and 133 ng/mL
- Tmax [1, 3]: 48 h
- t½ [1, 3]: 57 h and 59 h and 34 h and 28 h
- F (bioavailability) ([1]; local prostate implant 250 mg, individual animals): 74% and 46% and 50% and 112%
- F (bioavailability) ([1]; local prostate implant 500 mg, individual animals): 86% and 110% and 113% and 98%
- half-life ([1]; male, beagle, dog, plasma, 250 mg, beagle dog plasma, local prostate implant 250 mg, individual animals): 32 h
- AUC ([1]; male, beagle, dog, plasma, 250 mg, beagle dogs, local prostate implant 250 mg, Mean of four animals, read-out: AUC): 8330 ng·h/mL
- Cmax ([1]; male, beagle, dog, plasma, 250 mg, beagle dogs, local prostate implant 250 mg, Mean of four animals, read-out: Cmax): 93 ng/mL
- Tmax ([1]; male, beagle, dog, plasma, 250 mg, beagle dogs, local prostate implant 250 mg, Mean of four animals, read-out: tmax): 17 h
- half-life [1, 4]: 33 h
- AUC ([1]; male, beagle, dog, plasma, 500 mg, beagle dog plasma, local prostate implant 500 mg, individual animals, read-out: AUC): 10200 ng·h/mL
- Cmax ([1]; male, beagle, dog, plasma, 500 mg, beagle dog plasma, local prostate implant 500 mg, individual animals, read-out: Cmax): 102 ng/mL
- AUC ([1]; male, beagle, dog, plasma, 500 mg, beagle dogs, local prostate implant 500 mg, Mean of four animals, read-out: AUC): 12100 ng·h/mL
- Cmax ([1]; male, beagle, dog, plasma, 500 mg, beagle dogs, local prostate implant 500 mg, Mean of four animals, read-out: Cmax): 145 ng/mL
- Tmax ([1]; male, beagle, dog, plasma, 500 mg, beagle dogs, local prostate implant 500 mg, Mean of four animals, read-out: tmax): 27 h
- half-life [1, 5]: 45 h
- bioavailability [1, 4]: 71%
- bioavailability [1, 5]: 102%
- Cmax (in vivo; Cmax): 835 ng/mL
- half-life (in vivo; elimination half-life): 1.75 ± 0.2 h
- half-life (in vivo; t1/2): 1.9 h
SMILES: CC(C)(O)C(=O)Nc1ccc([N+](=O)[O-])c(C(F)(F)F)c1 [2-hydroxy-flutamide]
- AUC [1, 2]: 8701 ng·h/mL and 5446 ng·h/mL and 5921 ng·h/mL and 13237 ng·h/mL
- Cmax [1, 2]: 97 ng/mL and 58 ng/mL and 85 ng/mL and 131 ng/mL
- AUC [1, 3]: 13009 ng·h/mL and 13420 ng·h/mL and 11631 ng·h/mL
